Test results as given in PubChem BioAssay (NCI).
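Protocol summary: plate cells (96-well), add compound at 5 concentrations, incubate 48 h, interpolate endpoints linearly. GI50: concentration for 50% inhibition of growth. TGI is the concentration that stops growth completely.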

What was measured:
Test in all cases: NCI anticancer screen, dose series, 48 h
786-0 renal = tested on: 786-0 renal
DU-145 prostate = tested on: DU-145 prostate
HCT-116 colon = tested on: HCT-116 colon
K-562 leukemia = tested on: K-562 leukemia
M14 melanoma = tested on: M14 melanoma
MOLT-4 leukemia = tested on: MOLT-4 leukemia
SK-OV-3 ovarian = tested on: SK-OV-3 ovarian
SNB-19 CNS = tested on: SNB-19 CNS
SNB-75 CNS = tested on: SNB-75 CNS
UO-31 renal = tested on: UO-31 renal

CC(=O)Oc1ccc(OC(C)=O)c2ccccc12
GI50 (786-0 renal): 16.6 µM | TGI (786-0 renal): 30.5 µM | GI50 (DU-145 prostate): 15.9 µM | TGI (DU-145 prostate): 29.6 µM | GI50 (HCT-116 colon): 3.59 µM | TGI (HCT-116 colon): 12.9 µM | GI50 (K-562 leukemia): 3.39 µM | TGI (K-562 leukemia): 22 µM | GI50 (M14 melanoma): 16.1 µM | TGI (M14 melanoma): 30.4 µM | GI50 (MOLT-4 leukemia): 2.46 µM | TGI (MOLT-4 leukemia): 8.38 µM | GI50 (SK-OV-3 ovarian): 14.1 µM | TGI (SK-OV-3 ovarian): 27.1 µM | GI50 (SNB-19 CNS): 30.5 µM | TGI (SNB-19 CNS): > 100 µM | GI50 (SNB-75 CNS): 14 µM | TGI (SNB-75 CNS): 27.7 µM | GI50 (UO-31 renal): 2.14 µM | TGI (UO-31 renal): 16.1 µM

CC1(C)CCC[C@]23C(=O)O[C@](O)(C(=O)C4=C[C@@](C)(/C=C/CCCc5ccc6ccc7cccc8ccc5c6c78)CC[C@@]42O)[C@@H]13
GI50 (786-0 renal): 0.182 µM | TGI (786-0 renal): 0.343 µM | GI50 (DU-145 prostate): 0.179 µM | TGI (DU-145 prostate): 0.326 µM | GI50 (HCT-116 colon): 0.132 µM | TGI (HCT-116 colon): 0.299 µM | GI50 (K-562 leukemia): 0.3 µM | TGI (K-562 leukemia): 3.19 µM | GI50 (M14 melanoma): 0.196 µM | TGI (M14 melanoma): 0.409 µM | GI50 (MOLT-4 leukemia): 0.265 µM | TGI (MOLT-4 leukemia): 11.2 µM | GI50 (SK-OV-3 ovarian): 0.178 µM | TGI (SK-OV-3 ovarian): 0.324 µM | GI50 (SNB-19 CNS): 0.188 µM | TGI (SNB-19 CNS): 0.414 µM | GI50 (SNB-75 CNS): 0.149 µM | TGI (SNB-75 CNS): 0.284 µM | GI50 (UO-31 renal): 0.156 µM | TGI (UO-31 renal): 0.291 µM

Cc1ccc2c(c1)C(=O)c1c-2n(CCCN)c(=O)c2cc([N+](=O)[O-])ccc12
GI50 (786-0 renal): 0.0576 µM | TGI (786-0 renal): 0.208 µM | GI50 (DU-145 prostate): 0.262 µM | TGI (DU-145 prostate): 0.89 µM | GI50 (HCT-116 colon): 0.166 µM | TGI (HCT-116 colon): 0.718 µM | GI50 (K-562 leukemia): 0.11 µM | TGI (K-562 leukemia): 0.721 µM | GI50 (M14 melanoma): 0.452 µM | TGI (M14 melanoma): 1.16 µM | GI50 (MOLT-4 leukemia): 0.0244 µM | TGI (MOLT-4 leukemia): 0.129 µM | GI50 (SK-OV-3 ovarian): 0.147 µM | TGI (SK-OV-3 ovarian): 0.502 µM | GI50 (SNB-19 CNS): 0.178 µM | TGI (SNB-19 CNS): 0.706 µM | GI50 (SNB-75 CNS): 0.385 µM | TGI (SNB-75 CNS): 1.07 µM | GI50 (UO-31 renal): 0.144 µM | TGI (UO-31 renal): 0.811 µM

COc1ccc(/C=C/c2c(C(=O)/C=C/c3ccc(Cl)cc3)c(C)nc3ccccc23)cc1
GI50 (786-0 renal): 1.82 µM | TGI (786-0 renal): 3.4 µM | GI50 (DU-145 prostate): 1.69 µM | TGI (DU-145 prostate): 3.25 µM | GI50 (HCT-116 colon): 0.799 µM | TGI (HCT-116 colon): 2.19 µM | GI50 (K-562 leukemia): 2.19 µM | TGI (K-562 leukemia): > 100 µM | GI50 (M14 melanoma): 1.83 µM | TGI (M14 melanoma): 4.15 µM | GI50 (MOLT-4 leukemia): 2 µM | TGI (MOLT-4 leukemia): > 100 µM | GI50 (SK-OV-3 ovarian): 2.82 µM | TGI (SK-OV-3 ovarian): 11.4 µM | GI50 (SNB-19 CNS): 1.74 µM | TGI (SNB-19 CNS): 3.29 µM | GI50 (SNB-75 CNS): 1.5 µM | TGI (SNB-75 CNS): 3.14 µM | GI50 (UO-31 renal): 1.21 µM | TGI (UO-31 renal): 2.47 µM

Cc1ccc2nc3c(C)c(Cl)c(=O)cc-3sc2c1
TGI (786-0 renal): > 100 µM | TGI (DU-145 prostate): > 100 µM | TGI (HCT-116 colon): 58 µM | TGI (K-562 leukemia): 19 µM | TGI (M14 melanoma): 36.4 µM | TGI (MOLT-4 leukemia): 41.3 µM | TGI (SK-OV-3 ovarian): > 100 µM | TGI (SNB-19 CNS): > 100 µM | TGI (SNB-75 CNS): 56.3 µM | TGI (UO-31 renal): 67.4 µM

CN(C)CCCNc1nn2c(=O)c3ccccc3nc2c2ccccc12
GI50 (786-0 renal): 10.9 µM | TGI (786-0 renal): 23.7 µM | GI50 (DU-145 prostate): 10.4 µM | TGI (DU-145 prostate): 28.4 µM | GI50 (HCT-116 colon): 3.72 µM | TGI (HCT-116 colon): 15.7 µM | GI50 (K-562 leukemia): 9.94 µM | TGI (K-562 leukemia): 31.8 µM | GI50 (M14 melanoma): 11.8 µM | TGI (M14 melanoma): 24.5 µM | GI50 (MOLT-4 leukemia): 2.47 µM | TGI (MOLT-4 leukemia): 7.16 µM | GI50 (SK-OV-3 ovarian): 5.43 µM | TGI (SK-OV-3 ovarian): 22.8 µM | GI50 (SNB-19 CNS): 13.2 µM | TGI (SNB-19 CNS): 43.9 µM | GI50 (SNB-75 CNS): 2.73 µM | TGI (SNB-75 CNS): 51.1 µM | GI50 (UO-31 renal): 3.55 µM | TGI (UO-31 renal): 18.2 µM

COc1ccccc1/C=C\c1cnnc2ccccc12
TGI (786-0 renal): > 10 µM | TGI (DU-145 prostate): > 10 µM | TGI (HCT-116 colon): > 10 µM | TGI (K-562 leukemia): > 10 µM | TGI (M14 melanoma): > 10 µM | TGI (MOLT-4 leukemia): > 10 µM | TGI (SK-OV-3 ovarian): > 10 µM | TGI (SNB-19 CNS): > 10 µM | TGI (SNB-75 CNS): > 10 µM

O=P(Oc1ccc(Cl)cc1)(Oc1ccc(Cl)cc1)N1CC1
TGI (786-0 renal): > 10 µM | TGI (DU-145 prostate): > 10 µM | TGI (K-562 leukemia): > 10 µM | TGI (M14 melanoma): > 10 µM | TGI (MOLT-4 leukemia): > 10 µM | TGI (SK-OV-3 ovarian): > 10 µM | TGI (SNB-19 CNS): > 10 µM | TGI (SNB-75 CNS): > 10 µM | TGI (UO-31 renal): > 10 µM

O=C1NC(=O)/C(=C/C=C/c2ccccc2)S1
GI50 (786-0 renal): 0.366 µM | TGI (786-0 renal): 4.27 µM | GI50 (DU-145 prostate): 3.76 µM | TGI (DU-145 prostate): 36.6 µM | GI50 (HCT-116 colon): 2.36 µM | TGI (HCT-116 colon): 18.6 µM | GI50 (K-562 leukemia): 3.27 µM | TGI (K-562 leukemia): > 100 µM | GI50 (M14 melanoma): 2.1 µM | TGI (M14 melanoma): > 20.6 µM | GI50 (MOLT-4 leukemia): 2.08 µM | TGI (MOLT-4 leukemia): > 72 µM | GI50 (SK-OV-3 ovarian): 38.7 µM | TGI (SK-OV-3 ovarian): > 100 µM | GI50 (SNB-19 CNS): 1.42 µM | TGI (SNB-19 CNS): 20.3 µM | GI50 (SNB-75 CNS): 5.25 µM | TGI (SNB-75 CNS): 40.3 µM | GI50 (UO-31 renal): 2.81 µM | TGI (UO-31 renal): 30.4 µM

Oc1ccc2oc3ncc(Cl)c(-c4ccccc4)c3c2c1
GI50 (786-0 renal): 0.0939 µM | TGI (786-0 renal): > 100 µM | GI50 (DU-145 prostate): > 100 µM | TGI (DU-145 prostate): > 100 µM | GI50 (HCT-116 colon): > 100 µM | TGI (HCT-116 colon): > 100 µM | GI50 (K-562 leukemia): > 100 µM | TGI (K-562 leukemia): > 100 µM | GI50 (M14 melanoma): > 100 µM | TGI (M14 melanoma): > 100 µM | GI50 (MOLT-4 leukemia): > 100 µM | TGI (MOLT-4 leukemia): > 100 µM | GI50 (SK-OV-3 ovarian): > 100 µM | TGI (SK-OV-3 ovarian): > 100 µM | GI50 (SNB-19 CNS): > 100 µM | TGI (SNB-19 CNS): > 100 µM | GI50 (SNB-75 CNS): > 100 µM | TGI (SNB-75 CNS): > 100 µM | GI50 (UO-31 renal): > 100 µM | TGI (UO-31 renal): > 100 µM

S=c1nc(-c2nc(=S)[nH]c3c2CCCCCCCCCC3)c2c([nH]1)CCCCCCCCCC2
TGI (786-0 renal): > 100 µM | TGI (DU-145 prostate): > 100 µM | TGI (HCT-116 colon): > 100 µM | TGI (K-562 leukemia): > 100 µM | TGI (M14 melanoma): > 100 µM | TGI (MOLT-4 leukemia): > 100 µM | TGI (SK-OV-3 ovarian): > 100 µM | TGI (SNB-19 CNS): > 100 µM | TGI (SNB-75 CNS): > 100 µM | TGI (UO-31 renal): > 100 µM

S=c1nc(-c2ccccc2)oc(=NC2CCCCC2)n1C1CCCCC1
GI50 (786-0 renal): 4.46 µM | TGI (786-0 renal): 16.2 µM | GI50 (DU-145 prostate): 3.26 µM | TGI (DU-145 prostate): 10.3 µM | GI50 (HCT-116 colon): 4.19 µM | TGI (HCT-116 colon): 17.1 µM | GI50 (K-562 leukemia): 5.25 µM | TGI (K-562 leukemia): > 100 µM | GI50 (M14 melanoma): 6.2 µM | TGI (M14 melanoma): 27.8 µM | GI50 (MOLT-4 leukemia): 1.54 µM | TGI (MOLT-4 leukemia): 6.01 µM | GI50 (SK-OV-3 ovarian): 5.05 µM | TGI (SK-OV-3 ovarian): > 100 µM | GI50 (SNB-19 CNS): 5.05 µM | TGI (SNB-19 CNS): 17.4 µM | GI50 (SNB-75 CNS): 4.65 µM | TGI (SNB-75 CNS): 17.5 µM | GI50 (UO-31 renal): > 100 µM | TGI (UO-31 renal): > 100 µM

O=C(c1ccccc1)C1C(C(=O)c2ccccc2)N1Cc1ccccc1 (stereo not given)
TGI (786-0 renal): > 100 µM | TGI (DU-145 prostate): 85.8 µM | TGI (K-562 leukemia): > 100 µM | TGI (M14 melanoma): > 100 µM | TGI (MOLT-4 leukemia): > 100 µM | TGI (SK-OV-3 ovarian): > 100 µM | TGI (SNB-19 CNS): > 100 µM | TGI (SNB-75 CNS): 57.1 µM | TGI (UO-31 renal): > 100 µM

O=C1c2ccccc2C(=O)c2c1ccc(C(Br)Br)c2[N+](=O)[O-]
GI50 (786-0 renal): 1.85 µM | TGI (786-0 renal): 3.45 µM | GI50 (DU-145 prostate): 1.98 µM | TGI (DU-145 prostate): 4.01 µM | GI50 (HCT-116 colon): 0.739 µM | TGI (HCT-116 colon): 2.19 µM | GI50 (M14 melanoma): 1.97 µM | TGI (M14 melanoma): 3.94 µM | GI50 (MOLT-4 leukemia): 1.23 µM | TGI (MOLT-4 leukemia): 3.43 µM | GI50 (SK-OV-3 ovarian): 14.1 µM | TGI (SK-OV-3 ovarian): 27.1 µM | GI50 (SNB-19 CNS): 1.93 µM | TGI (SNB-19 CNS): 4.42 µM | GI50 (SNB-75 CNS): 14.1 µM | TGI (SNB-75 CNS): 28.7 µM | GI50 (UO-31 renal): 1.52 µM | TGI (UO-31 renal): 2.93 µM
